Measured values reported in article PMC10544575, “Inhibitory mechanism of vortioxetine on CYP450 enzymes in human and rat liver microsomes” (Frontiers in Pharmacology, 2023).
“Also recorded” adds a separate entry of the source. Where two headings read alike, the source gives them in different places.

Columns and labels:
Assay type in all cases: in vitro ADME
[1] = system: CYP2D; assay: IC50-shift experiment, CYP2D in RLMs; conditions: rat, rat liver microsomes, probe dextromethorphan; for IC50 at 30 min: dextromethorphan 20 μM
Experimental: (§1) The components of the incubation system were as follows: 0.20 mg/mL HLMs or 0.20 mg/mL RLMs, 0.1 M Tris-HCl, vortioxetine, and the probe substrates of each enzyme. In the study of Km’s (Michaelis–Menten constant) experiment, midazolam (1, 2, 5, 10, 20, 50 and 100 μM in HLMs and RLMs) corresponded to CYP3A4/3A; bupropion (10, 20, 50, 100, 200, 500, 1,000 and 2000 μM in HLMs; 1, 2, 5, 10, 20, 50, 100 and 200 μM in RLMs) corresponded to CYP2B6/2B; amodiaquine (5, 10, 20, 50, 100 and 200 μM in HLMs; 10, 20, 50, 100, 200, 500 μM in RLMs) corresponded to CYP2C8/CYP2C-1; losartan (1, 2, 5, 10, 20, 50, 100, 200 μM in HLMs; 10, 20, 50, 100, 200, 500 and 1,000 μM in RLMs) corresponded to CYP2C9/CYP2C-2; mephenytoin (20, 50, 100, 200, 500 and 1,000 μM in HLMs; 5, 10, 20, 50, 100, 200, 500 and 1,000 μM in RLMs) corresponded to CYP2C19/CYP2C-3; and dextromethorphan (1, 2, 5, 10, 20, 50 and 100 μM in HLMs and RLMs) corresponded to CYP2D6/CYP2D. After 5.0 min of preincubation in the shaking water bath, the reaction was started with the addition of 1.0 mM NADPH. The incubated temperature at 37°C for 30 min. After the incubation, the enzyme reaction was stopped by cooling at −80°C, and 200 μL of acetonitrile and 20 μL of internal standard diazepam (200 ng/mL) were added for protein precipitation. […]
IC50-shift was used to investigate whether the drug produced time-dependent inhibition (TDI) of the enzyme. […] During the experiment, the individual substrates midazolam (4 μM), bupropion (40 μM), amodiaquine (3 μM), losartan (8 μM), mephenytoin (90 μM), and dextromethorphan (10 μM) were determined with vortioxetine IC50-shift in HLMs. […]
(§2) All experiments results were detected by UPLC-MS/MS, which equipped with a Waters Acquity UPLC system (Milford, MA, United States) and a Waters Xevo TQ-S triple quadrupole tandem mass spectrometer with an electrospray ionization source (Milford, MA, United States). […]
(§3) IC50 values and enzyme kinetic parameters were calculated by Graphpad Prism 6.0 (GraphPad software Inc., CA, United States). […] Data for each experiment were expressed as mean ± SD (n = 3).

[2] = target: CYP3A4 (Homo sapiens, UniProt P08684); assay: IC50 of vortioxetine on CYP3A4 (midazolam) in HLMs; design: 0.20 mg/mL HLMs; from tissue; host or cells: human liver microsomes
Experimental: as §1, with “CYP2D6/CYP2D.” for “CYP2D6/CYP2D. After 5.0 min of preincubation in the shaking water bath, the reaction was started with the addition of 1.0 mM NADPH. The incubated temperature at 37°C for 30 min. After the incubation, the enzyme reaction was stopped by cooling at −80°C, and 200 μL of acetonitrile and 20 μL of internal standard diazepam (200 ng/mL) were added for protein precipitation.”
as §2, §3

[3] = target: CYP2C19 (Homo sapiens, UniProt P33261); assay: Reversible inhibition kinetics (Lineweaver-Burk), CYP2C19 in HLMs; design: 0.20 mg/mL HLMs; from tissue; host or cells: human liver microsomes; conditions: mephenytoin
Experimental: as §1, with “CYP2D6/CYP2D.” for “CYP2D6/CYP2D. After 5.0 min of preincubation in the shaking water bath, the reaction was started with the addition of 1.0 mM NADPH. The incubated temperature at 37°C for 30 min. After the incubation, the enzyme reaction was stopped by cooling at −80°C, and 200 μL of acetonitrile and 20 μL of internal standard diazepam (200 ng/mL) were added for protein precipitation.”
as §2, §3

Sequence of CYP2C19 (P33261 whole entry): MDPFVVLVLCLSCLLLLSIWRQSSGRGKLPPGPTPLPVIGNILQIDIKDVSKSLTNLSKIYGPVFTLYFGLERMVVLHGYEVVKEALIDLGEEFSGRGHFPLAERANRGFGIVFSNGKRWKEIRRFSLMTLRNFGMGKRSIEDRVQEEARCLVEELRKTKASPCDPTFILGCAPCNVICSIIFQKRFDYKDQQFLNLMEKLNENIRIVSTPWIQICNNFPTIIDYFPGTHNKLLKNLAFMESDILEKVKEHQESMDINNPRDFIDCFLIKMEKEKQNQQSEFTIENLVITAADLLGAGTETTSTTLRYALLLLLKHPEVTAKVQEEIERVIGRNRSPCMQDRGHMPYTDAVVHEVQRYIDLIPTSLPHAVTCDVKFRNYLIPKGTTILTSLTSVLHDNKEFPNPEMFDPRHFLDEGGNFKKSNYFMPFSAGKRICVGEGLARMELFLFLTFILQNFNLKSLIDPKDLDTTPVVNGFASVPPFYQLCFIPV
Sequence of CYP3A4 (P08684 whole entry): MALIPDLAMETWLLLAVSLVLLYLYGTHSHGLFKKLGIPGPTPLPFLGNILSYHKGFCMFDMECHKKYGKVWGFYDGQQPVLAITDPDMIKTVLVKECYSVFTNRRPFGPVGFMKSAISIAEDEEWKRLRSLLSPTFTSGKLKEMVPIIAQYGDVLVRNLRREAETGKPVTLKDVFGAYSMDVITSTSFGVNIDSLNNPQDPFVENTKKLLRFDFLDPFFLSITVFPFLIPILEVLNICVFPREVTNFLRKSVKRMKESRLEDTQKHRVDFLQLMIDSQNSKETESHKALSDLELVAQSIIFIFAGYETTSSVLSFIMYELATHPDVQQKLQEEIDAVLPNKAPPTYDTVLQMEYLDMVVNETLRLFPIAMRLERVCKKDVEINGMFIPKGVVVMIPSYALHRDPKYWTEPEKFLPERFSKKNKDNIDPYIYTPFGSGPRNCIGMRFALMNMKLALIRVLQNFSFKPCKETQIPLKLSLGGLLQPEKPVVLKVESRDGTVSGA

IC50 at 30 min ([1]; 30 min preincubation with 1.0 mM NADPH): 7.38 µM
IC50 at 30 min ([1]; 30 min preincubation without NADPH): 3.35 µM
IC50 ([2]; HLMs 0.20 mg/mL, midazolam at Km, 37°C, 30 min, read-out: IC50): 9.31 µM
IC50 ([2]; inhibitory effect (strength judged by IC50), HLMs): 1 to 10 µM
Ki [3]: 2.17 µM
Compound: Cc1ccc(Sc2ccccc2N2CCNCC2)c(C)c1 [vortioxetine]
IC50 shift at 30 min ([1]; ratio IC50 (−) NADPH to IC50 (+) NADPH, read-out: IC50 fold shift): 0.45
Inhibition type ([3]; Lineweaver-Burk plot): competitively inhibited; also recorded: competitive inhibition
